Measured values from patent US9513294B2, “Megastokes amino-triazolyl-BODIPY compounds and applications to live neuron staining and human serum albumin FA1 drug site probing” (National University of Singapore, priority 2012, dated 2016).

Tests used:
[1] = Absorbance and fluorescence emission spectra (SpectraMax M2); format: physicochemical; settings: for λmax Abs. (nm) / λmax Em. (nm): MKAC compound library; for λmax Abs. (nm) / λmax Absorp. (nm): absorbance maximum; for λmax Em. (nm) / λmax Emission (nm): fluorescence emission maximum; for λmax Absorp. (nm) / λmax Emission (nm): MKCA compound library
Procedure: BDC-8 (Blue): absorbance λmax=473 nm, emission λmax=585 nm; MK101-8 (Green): absorbance λmax=474 nm, emission λmax=563 nm; MKHA374-48 (Yellow): absorbance λmax=468 nm, λem=557 nm. The corresponding spectra of a reported BODIPY (BD-27; Red) are also included for comparison: absorbance λmax=551 nm, emission λmax=568 nm. The structures of BDC-8, MK101-8, MKHA374-48 and BD-27 are also depicted.
(§1) ^1H-NMR, ^19F-NMR and ^13C-NMR spectra were recorded on Bruker ACF300 (300 MHz), DPX300 (300 MHz) and AMX500 (500 MHz) spectrometers. High resolution mass spectra (ESI) were obtained on a Finnigan/MAT 95XL-T spectrometer. Spectroscopic and quantum yield data were measured on a SpectraMax M2 spectrophotometer (Molecular Devices). Data analysis was performed using GraphPrism 5.0. Analytical characterization was performed on a HPLC-MS (Agilent-1200 series) with a DAD detector and a single quadrupole mass spectrometer (6130 series) with an ESI probe. Analytical HPLC method: eluents, A: H2O (0.1% HCOOH), B: CH3CN (0.1% HCOOH), gradient 5% B to 95% B (10 min). Reverse-phase Phenomenex C18 Luna column (4.6×50 mm^2, 3.5 […]), flow rate: 1 mL/min.

[2] = Quantum yield measurements versus Acridine Yellow in EtOH; format: physicochemical; settings: for φ (quantum yield): excitation 460 nm; for φ (%): quantum yield
Procedure: as §1
Quantum yields were calculated by measuring the integrated emission area of the fluorescent spectra and comparing to the area measured for Acridine Yellow in EtOH when excited at 460 nm (Φfluorescence^AcridineYellow=0.47). Quantum yields for the amino-triazolyl-BODIPYs were calculated using the equation below, where F represents the area of fluorescent emission, η is the refractive index of the solvent, and Abs is absorbance at the excitation wavelength selected for standards and samples. Emission was integrated between 510 and 700 nm.

O=C(CCl)Nc1ccc(C2=C3C=CC(N4CCCCC4)=[N+]3[B-](F)(F)n3c2ccc3-n2cc(-c3cccc(F)c3)nn2)cc1 [BDCCA-31]
λmax Absorp. ([1]; BDCCA library, Table 4): 462 nm
λmax Emission ([1]; BDCCA library, Table 4): 568 nm
φ (quantum yield) ([2]; BDCCA library, Table 4): 1.0%

Nc1ccc(C2=C3C=CC(N4CCCCC4)=[N+]3[B-](F)(F)n3c2ccc3-n2cc(C3CCCC3)nn2)cc1 [BDC-5]
λmax Absorp. ([1]; BDC library, Table 2): 476 nm
λmax Emission ([1]; BDC library, Table 2): 582 nm
φ (quantum yield) ([2]; BDC library, Table 2): 0.16%

CCCC(C)c1cn(-c2ccc3n2[B-](F)(F)[N+]2=C(N4CC(C)OC(C)C4)C=CC2=C3c2ccc(NC(C)=O)cc2)nn1 (stereo not drawn) [MKAC20-3]
λmax Abs. (nm) [1]: 466 nm
λmax Em. (nm) [1]: 583 nm
φ (%) ([2]; MKAC compound library): 2.40%

CCCCCCCCCCc1cn(-c2ccc3n2[B-](F)(F)[N+]2=C(N4CCCCC4)C=CC2=C3c2ccc(NC(=O)CCl)cc2)nn1 [BDCCA-49]
λmax Absorp. ([1]; BDCCA library, Table 4): 466 nm
λmax Emission ([1]; BDCCA library, Table 4): 575 nm
φ (quantum yield) ([2]; BDCCA library, Table 4): 1.2%

O=C(CCl)Nc1ccc(C2=C3C=CC(N4CCCC4)=[N+]3[B-](F)(F)n3c2ccc3-n2cc(C3CC3)nn2)cc1 [MKCA215-4]
λmax Absorp. (nm) [1]: 462 nm
λmax Emission (nm) [1]: 570 nm
φ (%) ([2]; MKCA compound library): 3.35%

CCCc1cn(-c2ccc3n2[B-](F)(F)[N+]2=C(N4CCCCC4)C=CC2=C3c2ccc(N)cc2)nn1 [BDC-48]
λmax Absorp. ([1]; BDC library, Table 2): 476 nm
λmax Emission ([1]; BDC library, Table 2): 582 nm
φ (quantum yield) ([2]; BDC library, Table 2): 0.10%

O=C(CCl)Nc1ccc(C2=C3C=CC(NCc4cc(F)cc(F)c4)=[N+]3[B-](F)(F)n3c2ccc3-n2cc(C3CCCC3)nn2)cc1 [MKCA412-5]
λmax Absorp. (nm) [1]: 468 nm
λmax Emission (nm) [1]: 563 nm
φ (%) ([2]; MKCA compound library): 41.21%

O=C(CCl)Nc1ccc(C2=C3C=CC(N4CCCC4)=[N+]3[B-](F)(F)n3c2ccc3-n2cc(C3CCCC3)nn2)cc1 [MKCA215-5]
λmax Absorp. (nm) [1]: 463 nm
λmax Emission (nm) [1]: 574 nm
φ (%) ([2]; MKCA compound library): 1.94%

O=C(CCl)Nc1ccc(C2=C3C=CC(N4CCCCC4)=[N+]3[B-](F)(F)n3c2ccc3-n2cc(C3CCCCC3)nn2)cc1 [BDCCA-6]
λmax Absorp. ([1]; BDCCA library, Table 4): 467 nm
λmax Emission ([1]; BDCCA library, Table 4): 555 nm
φ (quantum yield) ([2]; BDCCA library, Table 4): 2.3%

Nc1ccc(C2=C3C=CC(NCc4cc(F)cc(F)c4)=[N+]3[B-](F)(F)n3c2ccc3-n2cc(CCc3ccccc3)nn2)cc1 [MK412-19]
λmax Absorp. ([1]; MK library, Table 5): 475 nm
λmax Emission ([1]; MK library, Table 5): 564 nm
φ (quantum yield) ([2]; MK library, Table 5): 0.92%

CCCCc1cn(-c2ccc3n2[B-](F)(F)[N+]2=C(N4CCCCC4)C=CC2=C3c2ccc(N)cc2)nn1 [BDC-42]
λmax Absorp. ([1]; BDC library, Table 2): 473 nm
λmax Emission ([1]; BDC library, Table 2): 584 nm
φ (quantum yield) ([2]; BDC library, Table 2): 0.19%

CC(=O)Nc1ccc(C2=C3C=CC(N4CCCCC4)=[N+]3[B-](F)(F)n3c2ccc3-n2cc(-c3ccc(F)cc3F)nn2)cc1 [BDCAC-26]
λmax Absorp. ([1]; BDCAC library, Table 3): 465 nm
λmax Emission ([1]; BDCAC library, Table 3): 567 nm
φ (quantum yield) ([2]; BDCAC library, Table 3): 1.3%

CCCc1cn(-c2ccc3n2[B-](F)(F)[N+]2=C(NCc4cc(OC)ccc4OC)C=CC2=C3c2ccc(N)cc2)nn1 [MK181-48]
λmax Absorp. ([1]; MK library, Table 5): 473 nm
λmax Emission ([1]; MK library, Table 5): 563 nm
φ (quantum yield) ([2]; MK library, Table 5): 0.50%

CC1CN(C2=[N+]3C(=C(c4ccc(NC(=O)CCl)cc4)c4ccc(-n5cc(C6CC6)nn5)n4[B-]3(F)F)C=C2)CC(C)O1 (stereo not drawn) [MKCA20-4]
λmax Absorp. (nm) [1]: 466 nm
λmax Emission (nm) [1]: 581 nm
φ (%) ([2]; MKCA compound library): 6.11%

CN(Cc1ccccc1)C1=[N+]2C(=C(c3ccc(N)cc3)c3ccc(-n4cc(C5CCCC5)nn4)n3[B-]2(F)F)C=C1 [MK195-5]
λmax Absorp. ([1]; MK library, Table 5): 477 nm
λmax Emission ([1]; MK library, Table 5): 579 nm
φ (quantum yield) ([2]; MK library, Table 5): 0.39%

CC(=O)Nc1ccc(C2=C3C=CC(NCc4cc(F)cc(F)c4)=[N+]3[B-](F)(F)n3c2ccc3-n2cc(CN(C)Cc3ccccc3)nn2)cc1 [MKAC412-18]
λmax Abs. (nm) [1]: 465 nm
λmax Em. (nm) [1]: 561 nm
φ (%) ([2]; MKAC compound library): 21.83%

Cc1ccc(-c2cn(-c3ccc4n3[B-](F)(F)[N+]3=C(N5CCCCC5)C=CC3=C4c3ccc(NC(=O)CCl)cc3)nn2)cc1 [BDCCA-10]
λmax Absorp. ([1]; BDCCA library, Table 4): 463 nm
λmax Emission ([1]; BDCCA library, Table 4): 558 nm
φ (quantum yield) ([2]; BDCCA library, Table 4): 2.9%

Nc1ccc(C2=C3C=CC(N4CCCCC4)=[N+]3[B-](F)(F)n3c2ccc3-n2cc(-c3ccc(-c4ccccc4)cc3)nn2)cc1 [BDC-23]
λmax Absorp. ([1]; BDC library, Table 2): 472 nm
λmax Emission ([1]; BDC library, Table 2): 570 nm
φ (quantum yield) ([2]; BDC library, Table 2): 0.20%

CCc1ccc(-c2cn(-c3ccc4n3[B-](F)(F)[N+]3=C(N5CCCCC5)C=CC3=C4c3ccc(NC(=O)CCl)cc3)nn2)cc1 [BDCCA-46]
λmax Absorp. ([1]; BDCCA library, Table 4): 464 nm
λmax Emission ([1]; BDCCA library, Table 4): 568 nm
φ (quantum yield) ([2]; BDCCA library, Table 4): 1.2%

COc1ccc(OC)c(CNC2=[N+]3C(=C(c4ccc(N)cc4)c4ccc(-n5cc(CCc6ccccc6)nn5)n4[B-]3(F)F)C=C2)c1 [MK181-19]
λmax Absorp. ([1]; MK library, Table 5): 474 nm
λmax Emission ([1]; MK library, Table 5): 564 nm
φ (quantum yield) ([2]; MK library, Table 5): 0.85%

CCCc1cn(-c2ccc3n2[B-](F)(F)[N+]2=C(NCc4cc(OC)ccc4OC)C=CC2=C3c2ccc(NC(C)=O)cc2)nn1 [MKAC181-48]
λmax Abs. (nm) [1]: 465 nm
λmax Em. (nm) [1]: 561 nm
φ (%) ([2]; MKAC compound library): 11.03%

CCCCCc1ccc(-c2cn(-c3ccc4n3[B-](F)(F)[N+]3=C(N5CCCCC5)C=CC3=C4c3ccc(N)cc3)nn2)cc1 [BDC-29]
λmax Absorp. ([1]; BDC library, Table 2): 471 nm
λmax Emission ([1]; BDC library, Table 2): 586 nm
φ (quantum yield) ([2]; BDC library, Table 2): 0.23%

CC(=O)Nc1ccc(C2=C3C=CC(N4CCCCC4)=[N+]3[B-](F)(F)n3c2ccc3-n2cc(-c3cc(C(F)(F)F)cc(C(F)(F)F)c3)nn2)cc1 [BDCAC-30]
λmax Absorp. ([1]; BDCAC library, Table 3): 459 nm
λmax Emission ([1]; BDCAC library, Table 3): 549 nm
φ (quantum yield) ([2]; BDCAC library, Table 3): 3.5%

CC1CN(C2=[N+]3C(=C(c4ccc(N)cc4)c4ccc(-n5cc(CC6CCCCC6)nn5)n4[B-]3(F)F)C=C2)CC(C)O1 (stereo not drawn) [MK20-8]
λmax Absorp. ([1]; MK library, Table 5): 476 nm
λmax Emission ([1]; MK library, Table 5): 563 nm
φ (quantum yield) ([2]; MK library, Table 5): 0.32%

COc1ccc(OC)c(CNC2=[N+]3C(=C(c4ccc(N)cc4)c4ccc(-n5cc(CC6CCCCC6)nn5)n4[B-]3(F)F)C=C2)c1 [MK181-8]
λmax Absorp. ([1]; MK library, Table 5): 474 nm
λmax Emission ([1]; MK library, Table 5): 565 nm
φ (quantum yield) ([2]; MK library, Table 5): 0.33%

CCCC(C)c1cn(-c2ccc3n2[B-](F)(F)[N+]2=C(NCc4cc(F)cc(F)c4)C=CC2=C3c2ccc(N)cc2)nn1 (stereo not drawn) [MK412-3]
λmax Absorp. ([1]; MK library, Table 5): 476 nm
λmax Emission ([1]; MK library, Table 5): 562 nm
φ (quantum yield) ([2]; MK library, Table 5): 0.63%

CC(=O)Nc1ccc(C2=C3C=CC(N(C)Cc4ccccc4)=[N+]3[B-](F)(F)n3c2ccc3-n2cc(CCc3ccccc3)nn2)cc1 [MKAC195-19]
λmax Abs. (nm) [1]: 467 nm
λmax Em. (nm) [1]: 577 nm
φ (%) ([2]; MKAC compound library): 3.78%

CCCc1cn(-c2ccc3n2[B-](F)(F)[N+]2=C(N(C)Cc4ccccc4)C=CC2=C3c2ccc(N)cc2)nn1 [MK195-48]
λmax Absorp. ([1]; MK library, Table 5): 476 nm
λmax Emission ([1]; MK library, Table 5): 584 nm
φ (quantum yield) ([2]; MK library, Table 5): 0.32%

CC(=O)Nc1ccc(C2=C3C=CC(N4CC(C)OC(C)C4)=[N+]3[B-](F)(F)n3c2ccc3-n2cc(CN(C)Cc3ccccc3)nn2)cc1 (stereo not drawn) [MKAC20-18]
λmax Abs. (nm) [1]: 467 nm
λmax Em. (nm) [1]: 583 nm
φ (%) ([2]; MKAC compound library): 2.13%

CC(=O)Nc1ccc(C2=C3C=CC(N4CCCC4)=[N+]3[B-](F)(F)n3c2ccc3-n2cc(C3CC3)nn2)cc1 [MKAC215-4]
λmax Abs. (nm) [1]: 462 nm
λmax Em. (nm) [1]: 576 nm
φ (%) ([2]; MKAC compound library): 2.35%

CCCCCC(O)c1cn(-c2ccc3n2[B-](F)(F)[N+]2=C(N4CC(C)OC(C)C4)C=CC2=C3c2ccc(NC(C)=O)cc2)nn1 (stereo not drawn) [MKAC20-69]
λmax Abs. (nm) [1]: 469 nm
λmax Em. (nm) [1]: 590 nm
φ (%) ([2]; MKAC compound library): 2.23%
